Assay results reported in US5488060A, “Substituted thiadiazoles, compositions containing them and their use as antimicrobial and marine antifouling agents” (The Dow Chemical Company, priority 1994, dated 1996).
In brackets after ≈: the same amount, converted by molar mass. Where two headings read alike, the source gives them in different places.

Tests used:
Type in all cases: cell-based
Bacillus subtilis (Bs) = test: Minimum inhibitory concentration (MIC) in nutrient agar, Bacillus subtilis
How it was run: (§1)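 Agar dilution; nutrient agar at pH 6.8 (neutral) and pH 8.2 (alkaline, tricine-buffered). Compound from 1% acetone/water stock, final 500–1.0 ppm. Inoculum 10^8 CFU/mL via Steer's replicator. 30° C, 48 h; growth/no growth read.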

[1] = test system: Enterobacter aerogenes (Ea); test: Minimum inhibitory concentration (MIC) in nutrient agar, Enterobacter aerogenes; conditions: Klebsiella aerogenes
How it was run: as §1

Escherichia coli (Ec) = test: Minimum inhibitory concentration (MIC) in nutrient agar, Escherichia coli
How it was run: as §1

[2] = test system: Klebsiella pneumoniae (Kp); test: Minimum inhibitory concentration (MIC) in nutrient agar, Klebsiella pneumoniae
How it was run: as §1

Proteus vulgaris (Pv) = test: Minimum inhibitory concentration (MIC) in nutrient agar, Proteus vulgaris
How it was run: as §1

[3] = test system: Pseudomonas aeruginosa (PRD-10); test: Minimum inhibitory concentration (MIC) in nutrient agar, Pseudomonas aeruginosa PRD-10
How it was run: as §1

[4] = test system: Pseudomonas aeruginosa (Pa); test: Minimum inhibitory concentration (MIC) in nutrient agar, Pseudomonas aeruginosa; conditions: 30° C., 48 hours, read-out: Minimum Inhibitory Concentration, Pa
How it was run: as §1

[5] = test system: Salmonella choleraesuis (Se); test: Minimum inhibitory concentration (MIC) in nutrient agar, Salmonella choleraesuis; conditions: Salmonella enterica
How it was run: as §1

[6] = test system: Staphylococcus aureus (Sa); test: Minimum inhibitory concentration (MIC) in nutrient agar, Staphylococcus aureus
How it was run: as §1

Aspergillus niger (An) = test: Minimum inhibitory concentration (MIC) in malt yeast agar, Aspergillus niger; conditions: pH 5.5; malt yeast agar, 30° C., 72 hours for fungi; read-out: Minimum Inhibitory Concentration, An
How it was run: (§2)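 Malt yeast agar pH 5.5 + cpd (from 1% soln in acetone/water) at final 500–zero ppm, poured at 48 °C, dried 24 h. Inoculum: 7-day 30 °C slants suspended in saline/octylphenoxy polyethoxy ethanol, diluted 1:9, replicator-spotted. Incubated 30 °C; read 48 h yeast, 72 h fungi.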

Candida albicans (Ca) = test: Minimum inhibitory concentration (MIC) in malt yeast agar, Candida albicans; conditions: 48 h, pH 5.5, read-out: Minimum Inhibitory Concentration, Ca
How it was run: (§3)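 Plates of pH 5.5 malt yeast agar carried test compound dispersed from a one percent acetone–water solution, final 500 to zero ppm. After diluted slant-culture suspensions were applied, plates were kept at 30 °C and examined at 72 h for fungi, 48 h for yeast.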

[7] = test system: Penicillium chrysogenum (Pc); test: Minimum inhibitory concentration (MIC) in malt yeast agar, Penicillium chrysogenum
How it was run: as §2

[8] = test system: Saccharomyces cerevisiae (Sc); test: Minimum inhibitory concentration (MIC) in malt yeast agar, Saccharomyces cerevisiae; conditions: pH 5.5, malt yeast agar, 30° C., 48 hours for yeast, read-out: Minimum Inhibitory Concentration, SC
How it was run: as §3

Trichoderma viride (Tv) = test: Minimum inhibitory concentration (MIC) in malt yeast agar, Trichoderma viride; conditions: pH 5.5; malt yeast agar, 30° C., 72 hours for fungi; read-out: Minimum Inhibitory Concentration, Tv
How it was run: as §2

[9] = test system: Aureobasidium pullulan (Ap); test: Minimum inhibitory concentration (MIC) in malt yeast agar, Aureobasidium pullulan
How it was run: as §2

Fusarium oxysporum (Fo) = test: Minimum inhibitory concentration (MIC) in malt yeast agar, Fusarium oxysporum
How it was run: as §2

[10] = 48 h, pH 8.2, read-out: Minimum Inhibitory Concentration, Ea
[11] = 48 h, pH 6.8, read-out: Minimum Inhibitory Concentration, Ec
[12] = pH 6.8, nutrient agar, 30° C., 48 hours, read-out: Minimum Inhibitory Concentration, Kp
[13] = pH 6.8, nutrient agar, 30° C., 48 hours, read-out: Minimum Inhibitory Concentration, Sa

## N#CSc1nsnc1-c1ccc(F)cc1 [Example V, 4-(4-Fluorophenyl)-3-thiocyanato-1,2,5-thiadiazole]
Bacillus subtilis (Bs); pH 6.8, nutrient agar, 30° C., 48 hours, read-out: Minimum Inhibitory Concentration, Bs
  MIC: < 10 µg/mL
Bacillus subtilis (Bs); pH 8.2, nutrient agar, 30° C., 48 hours, read-out: Minimum Inhibitory Concentration, Bs
  MIC: 50 µg/mL (≈ 211 µM)
[1]; [10]
  MIC: 500 µg/mL (≈ 2110 µM)
[1]; pH 6.8, nutrient agar, 30° C., 48 hours, read-out: Minimum Inhibitory Concentration, Ea
  MIC: 250 µg/mL (≈ 1050 µM)
Escherichia coli (Ec); [11]
  MIC: 50 µg/mL (≈ 211 µM)
Escherichia coli (Ec); pH 8.2, nutrient agar, 30° C., 48 hours, read-out: Minimum Inhibitory Concentration, Ec
  MIC: 250 µg/mL (≈ 1050 µM)
[2]; [12]
  MIC: 100 µg/mL (≈ 421 µM)
[2]; pH 8.2, nutrient agar, 30° C., 48 hours, read-out: Minimum Inhibitory Concentration, Kp
  MIC: 100 µg/mL (≈ 421 µM)
Proteus vulgaris (Pv); pH 6.8, nutrient agar, 30° C., 48 hours, read-out: Minimum Inhibitory Concentration, Pv
  MIC: 25 µg/mL (≈ 105 µM)
Proteus vulgaris (Pv); pH 8.2, nutrient agar, 30° C., 48 hours, read-out: Minimum Inhibitory Concentration, Pv
  MIC: 100 µg/mL (≈ 421 µM)
[3]; pH 6.8, nutrient agar, 30° C., 48 hours, read-out: Minimum Inhibitory Concentration, PRD
  MIC: 250 µg/mL (≈ 1050 µM)
[3]; pH 8.2, nutrient agar, 30° C., 48 hours, read-out: Minimum Inhibitory Concentration, PRD
  MIC: 250 µg/mL (≈ 1050 µM)
[4]; pH 6.8, nutrient agar
  MIC: 100 µg/mL (≈ 421 µM)
[4]; pH 8.2, nutrient agar
  MIC: 100 µg/mL (≈ 421 µM)
[5]; pH 6.8, nutrient agar, 30° C., 48 hours, read-out: Minimum Inhibitory Concentration, SC
  MIC: 100 µg/mL (≈ 421 µM)
[5]; pH 8.2, nutrient agar, 30° C., 48 hours, read-out: Minimum Inhibitory Concentration, SC
  MIC: 250 µg/mL (≈ 1050 µM)
[6]; [13]
  MIC: 25 µg/mL (≈ 105 µM)
[6]; pH 8.2, nutrient agar, 30° C., 48 hours, read-out: Minimum Inhibitory Concentration, Sa
  MIC: 50 µg/mL (≈ 211 µM)
Aspergillus niger (An)
  MIC: 5 µg/mL (≈ 21.1 µM)
Candida albicans (Ca)
  MIC: 25 µg/mL (≈ 105 µM)
[7]; 72 h, pH 5.5, read-out: Minimum Inhibitory Concentration, PC
  MIC: 2.5 µg/mL (≈ 10.5 µM)
[8]
  MIC: 5 µg/mL (≈ 21.1 µM)
Trichoderma viride (Tv)
  MIC: 25 µg/mL (≈ 105 µM)
[9]; pH 5.5, read-out: Minimum Inhibitory Concentration, Ap
  MIC: 2.5 µg/mL (≈ 10.5 µM)
Fusarium oxysporum (Fo); pH 5.5, malt yeast agar, 30° C., 72 hours for fungi, read-out: Minimum Inhibitory Concentration, Fo
  MIC: 10 µg/mL (≈ 42.1 µM)

## COc1ccc(-c2nsnc2SC#N)cc1 [Example VIII, 4-(4-Methoxyphenyl)-3-thiocyanato-1,2,5-thiadiazole]
Bacillus subtilis (Bs); 48 h, pH 6.8, read-out: Minimum Inhibitory Concentration, Bs
  MIC: 100 µg/mL (≈ 401 µM)
Bacillus subtilis (Bs); 48 h, pH 8.2, read-out: Minimum Inhibitory Concentration, Bs
  MIC: > 500 µg/mL
[1]; 48 h, pH 6.8, read-out: Minimum Inhibitory Concentration, Ea
  MIC: > 500 µg/mL
[1]; [10]
  MIC: > 500 µg/mL
Escherichia coli (Ec); [11]
  MIC: > 500 µg/mL
Escherichia coli (Ec); 48 h, pH 8.2, read-out: Minimum Inhibitory Concentration, Ec
  MIC: > 500 µg/mL
[2]; 48 h, pH 8.2, read-out: Minimum Inhibitory Concentration, Kp
  MIC: > 500 µg/mL
[2]; [12]
  MIC: > 500 µg/mL
Proteus vulgaris (Pv); 48 h, pH 6.8, read-out: Minimum Inhibitory Concentration, Pv
  MIC: > 500 µg/mL
Proteus vulgaris (Pv); 48 h, pH 8.2, read-out: Minimum Inhibitory Concentration, Pv
  MIC: > 500 µg/mL
[3]; 48 h, pH 6.8, read-out: Minimum Inhibitory Concentration, PRD
  MIC: > 500 µg/mL
[3]; 48 h, pH 8.2, read-out: Minimum Inhibitory Concentration, PRD
  MIC: > 500 µg/mL
[4]; pH 6.8, nutrient agar
  MIC: > 500 µg/mL
[4]; pH 8.2, nutrient agar
  MIC: > 500 µg/mL
[5]; 48 h, pH 6.8, read-out: Minimum Inhibitory Concentration, SC
  MIC: > 500 µg/mL
[5]; 48 h, pH 8.2, read-out: Minimum Inhibitory Concentration, SC
  MIC: > 500 µg/mL
[6]; 48 h, pH 8.2, read-out: Minimum Inhibitory Concentration, Sa
  MIC: > 500 µg/mL
[6]; [13]
  MIC: > 500 µg/mL
Aspergillus niger (An)
  MIC: 100 µg/mL (≈ 401 µM)
Candida albicans (Ca)
  MIC: 25 µg/mL (≈ 100 µM)
[7]; pH 5.5, malt yeast agar, 30° C., 72 hours for fungi, read-out: Minimum Inhibitory Concentration, PC
  MIC: > 500 µg/mL
[8]
  MIC: 9 µg/mL (≈ 36.1 µM)
Trichoderma viride (Tv)
  MIC: 9 µg/mL (≈ 36.1 µM)
[9]; pH 5.5, malt yeast agar, 30° C., read-out: Minimum Inhibitory Concentration, Ap
  MIC: 9 µg/mL (≈ 36.1 µM)
Fusarium oxysporum (Fo); 72 h, pH 5.5, read-out: Minimum Inhibitory Concentration, Fo
  MIC: 50 µg/mL (≈ 201 µM)
